Laboratory results published in publication PMC3285556 (Molecular Microbiology, 2011).

Key:
V. cholerae CqsA = V. cholerae CqsA (Vibrio cholerae serotype O1, UniProt Q9KM65); experiment: Coupled-enzyme assay for CqsA enzyme kinetics; type: biochemical; conditions: for Km / Vmax / kcat: Vc CqsA, acyl CoA substrate, 200 µM SAM
[1] = target: V. harveyi wild-type CqsS receptor (Vibrio campbellii, UniProt A7N6S2); experiment: cell-based; type: cell-based
[2] = target: V. cholerae CqsS receptor (wild-type) (Vibrio cholerae serotype O1, UniProt Q9KM66); type: cell-based
V. cholerae CqsS C170F = V. cholerae CqsS C170F (Vibrio cholerae serotype O1, UniProt Q9KM66, C170F); type: cell-based
V. harveyi CqsA = V. harveyi CqsA (Vibrio campbellii, UniProt A7N6R9); experiment: Coupled-enzyme assay for CqsA enzyme kinetics; type: biochemical; conditions: Vh CqsA, acyl CoA substrate, 200 µM SAM

For `CCCCCCCCCC(=O)SCCNC(=O)CCNC(=O)C(O)C(C)(C)COP(=O)(O)OP(=O)(O)OC[C@H]1O[C@@H](n2cnc3c(N)ncnc32)[C@H](O)[C@@H]1OP(=O)(O)O` (stereo partly drawn) [C10 CoA, decanoyl coenzyme A], the “substrate preference of V. cholerae CqsA, C10-CoA over C8-CoA (Km and kcat)” value (V. cholerae CqsA) was “four- to sixfold”, the Km (V. cholerae CqsA) was 13 ± 3.1 µM and the Vmax (V. cholerae CqsA) was 1.2 ± 0.15 µM/min. It also gave a kcat (V. cholerae CqsA) of 19.5 ± 2.5 min⁻¹.

With `CCCCCCCC(O)C(=O)CC` (stereo not drawn) [4-hydroxyundecan-3-one] the “agonist activity on V. harveyi CqsS (light production in JMH626), in words” value (“agonist activity on V. harveyi CqsS” for short) [1] was “inactive”.

`C/C=C(\N)C(=O)CCCCCCC` [Ea-C8-CAI-1, (Z)-3-aminoundec-2-en-4-one] was tested, and the “agonist activity on V. harveyi CqsS” value [1] was “induce maximal light production” and the “difference in EC50 between C8-CAI-1 and Ea-C8-CAI-1” value [2] was 30 fold.

For `CCCCCCCCCC(=O)[C@@H](O)CC` [CAI-1, (S)-3-hydroxytridecan-4-one], the “agonist activity on V. harveyi CqsS” value [1] was “insensitive” and the “detection by V. cholerae CqsS C170F, in words” value (V. cholerae CqsS C170F) was “only detects Ea-C8-CAI-1 and C8-CAI-1, but not CAI-1 and Ea-CAI-1”.

In the case of `CCCCCCCCCC(=O)[C@@H](N)CC` [Am-CAI-1, (S)-3-aminotridecan-4-one], the “potency relative to hydroxy counterpart” value ([1]; V. harveyi CqsS, data not shown) is reported as “comparable to the CAI-1 and C8-CAI-1 counterparts” and the “potency relative to hydroxy counterpart” value ([2]; V. cholerae CqsS, data not shown) is reported as “comparable to the CAI-1 and C8-CAI-1 counterparts”.

`CCCCCCCC(=O)SCCNC(=O)CCNC(=O)C(O)C(C)(C)COP(=O)(O)OP(=O)(O)OC[C@H]1O[C@@H](n2cnc3c(N)ncnc32)[C@H](O)[C@@H]1OP(=O)(O)O` (stereo partly drawn) [C8 CoA, octanoyl CoA] was tested, and the Km (V. harveyi CqsA) was 14.1 ± 1.3 µM, the Vmax (V. harveyi CqsA) was 0.64 ± 0.02 µM/min and the kcat (V. harveyi CqsA) was 10.7 ± 0.4 min⁻¹. For the same molecule, the Km (V. cholerae CqsA) was 73 ± 4.9 µM, the Vmax (V. cholerae CqsA) was 1.4 ± 0.05 µM/min and the kcat (V. cholerae CqsA) was 4.5 ± 0.17 min⁻¹.

With `CCCCCCCC(=O)C(O)CC` (stereo not drawn) [C8-CAI-1, 3-hydroxyundecan-4-one] the EC50 ([1]; EC50, V. harveyi wild-type CqsS) was 5 µM, the “agonist activity on V. harveyi CqsS” value [1] was “weak agonist” and the “increase in light production” value ([1]; JMH626, 10 µM) was “approximately 400 fold”. For the same molecule, the “light production on increasing the concentration” value ([1]; JMH626, 50 µM) was “did not further activate light production”.
